# Source: patent US20250066485A1, “USE OF INTEGRIN a5b1 INHIBITORS IN THE TREATMENT OF PULMONARY HYPERTENSION AND HEART FAILURE” (Morphic Therapeutic, Inc., priority 2022, published 2025)
# Read-outs that look alike come from different tables or passages of the source.
# Legend:
# [1] = cited from earlier work
# [2] = at room temperature; cited from earlier work
# hPASMCs = assay: hPASMC proliferation on fibronectin-coated plates; format: cell-based, human; settings: fibronectin-coated 96 well plate, up to 5 days
# Protocol: Antibody integrin α5β1 inhibitors were evaluated to determine whether integrin α5β1 inhibitors (e.g., P1D6 antibody or M200 antibody) could impair proliferation. Cells were seeded at 3000 cells/well in a 96 well plate coated with fibronectin. The next day integrin α5β1 inhibitor treatments were added and proliferation was monitored for up to 5 days.
# [3] = target: rat α5β1 (cells expressing rat α5β1) (rat); assay: cell-based or functional assay
# [4] = target: integrin α5β1 on hPASMCs (human) (UniProt P08648); assay: cell-based or functional assay
# Chain of integrin α5β1 on hPASMCs (human) (P08648 42-1049, chain 1 of 2): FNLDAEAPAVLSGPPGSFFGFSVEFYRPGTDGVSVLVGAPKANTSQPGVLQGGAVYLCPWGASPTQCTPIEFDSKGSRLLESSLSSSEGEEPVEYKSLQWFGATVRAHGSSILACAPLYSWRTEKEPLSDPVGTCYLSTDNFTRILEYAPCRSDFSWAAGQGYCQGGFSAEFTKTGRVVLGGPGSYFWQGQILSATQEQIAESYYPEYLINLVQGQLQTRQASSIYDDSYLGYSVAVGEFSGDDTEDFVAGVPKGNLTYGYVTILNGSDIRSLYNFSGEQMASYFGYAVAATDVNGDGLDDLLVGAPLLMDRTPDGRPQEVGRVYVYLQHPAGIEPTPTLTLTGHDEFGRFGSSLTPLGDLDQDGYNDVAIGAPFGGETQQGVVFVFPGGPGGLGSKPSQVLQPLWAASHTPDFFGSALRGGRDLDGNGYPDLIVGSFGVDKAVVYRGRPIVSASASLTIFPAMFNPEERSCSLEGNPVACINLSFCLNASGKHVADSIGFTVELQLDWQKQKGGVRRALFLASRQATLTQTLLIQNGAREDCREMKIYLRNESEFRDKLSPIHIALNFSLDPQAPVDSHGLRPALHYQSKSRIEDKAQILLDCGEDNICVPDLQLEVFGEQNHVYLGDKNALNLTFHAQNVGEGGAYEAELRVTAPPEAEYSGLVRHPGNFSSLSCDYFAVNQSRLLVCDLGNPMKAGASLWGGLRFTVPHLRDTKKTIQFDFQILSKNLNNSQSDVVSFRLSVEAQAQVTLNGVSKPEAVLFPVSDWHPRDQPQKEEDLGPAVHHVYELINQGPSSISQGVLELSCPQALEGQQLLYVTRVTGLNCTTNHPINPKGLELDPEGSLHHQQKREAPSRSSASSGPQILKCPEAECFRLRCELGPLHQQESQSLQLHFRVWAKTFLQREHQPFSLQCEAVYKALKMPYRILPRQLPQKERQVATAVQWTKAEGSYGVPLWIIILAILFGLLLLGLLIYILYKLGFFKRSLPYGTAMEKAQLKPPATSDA
# Chain of integrin α5β1 on hPASMCs (human) (P05556 21-798, chain 2 of 2, further chain): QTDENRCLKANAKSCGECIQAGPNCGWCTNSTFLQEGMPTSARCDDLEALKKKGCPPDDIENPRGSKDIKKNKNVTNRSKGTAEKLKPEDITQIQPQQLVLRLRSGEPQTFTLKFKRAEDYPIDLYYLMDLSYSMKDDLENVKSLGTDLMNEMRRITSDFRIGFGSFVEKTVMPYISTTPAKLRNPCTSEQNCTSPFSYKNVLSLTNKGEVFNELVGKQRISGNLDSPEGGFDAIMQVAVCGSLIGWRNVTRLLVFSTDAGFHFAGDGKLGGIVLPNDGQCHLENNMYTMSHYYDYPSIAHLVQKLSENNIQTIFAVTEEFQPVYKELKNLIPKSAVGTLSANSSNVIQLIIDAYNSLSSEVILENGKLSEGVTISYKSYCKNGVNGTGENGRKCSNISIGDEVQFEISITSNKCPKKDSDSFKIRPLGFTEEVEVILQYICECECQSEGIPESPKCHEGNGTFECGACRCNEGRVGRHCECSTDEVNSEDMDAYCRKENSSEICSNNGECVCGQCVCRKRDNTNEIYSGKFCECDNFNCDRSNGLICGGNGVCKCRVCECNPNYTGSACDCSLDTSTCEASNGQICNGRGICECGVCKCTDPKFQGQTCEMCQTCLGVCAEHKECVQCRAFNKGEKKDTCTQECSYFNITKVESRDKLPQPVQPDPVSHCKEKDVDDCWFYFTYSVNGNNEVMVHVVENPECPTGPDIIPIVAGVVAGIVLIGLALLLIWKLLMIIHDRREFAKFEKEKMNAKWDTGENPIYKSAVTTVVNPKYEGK
# PAH-PASMCs = assay: Proliferation (Ki67) and apoptosis (annexin V) of PAH-PASMCs on Fb-coated plates; format: cell-based, human; settings: 0.25 μM, 1 μM, and 4 μM on Fb-coated plates
# Protocol: Integrin α5β1 inhibitors (MRT, SMi, P1D6, or M200) were assessed for proliferation and apoptosis on Fb-coated plates. FIG. 5A-5C show exemplary proliferation (Ki67) and apoptosis (annexin V) of PAH-PASMCs treated with integrin α5β1 inhibitors (MRT, SMi, P1D6, or M200).
# PAH-PASMCs were treated with integrin α5β1 inhibitor SMi at 0.25 μM, 1 μM, and 4 μM on Fb-coated plates. Cells were evaluated by Western blot analysis to determine expression levels of ITGα5, ITGαV, ITGβ1, p-FAK, MCM2, PLK1, p-ERK, ERK, PCNA and Survivin in hPASMCs (FIG. 6A-6B).
# MCT animals = MCT animals with a cardiac defect, echocardiography; format: in vivo; settings: 100 mg/Kg PO BID, Day 14 to Day 27, PH phenotype not induced
# Protocol: To test the impact of SMi on cardiac function, MCT animals with a cardiac defect were treated with SMi or sildenafil as follows (1) Non-MCT vehicle PO BID; (2) MCT+vehicle PO BID (3) MCT+SMi 100 mg/Kg PO BID (4) MCT+sildenafil 10 mg/Kg PO BID (5) MCT+sildenafil 30 mg/Kg PO BID (6) MCT+sildenafil 100 mg/Kg PO BID. Pulmonary hypertension phenotype was not induced in this study (MCT causes both vascular and cardiac injury). Treatment with SMi, vehicle or sildenafil was administered, twice a day, from Day 14 to Day 27. Echocardiogram monitoring of the progression of the disease was carried out on Day 0, Day 14 and on surgery day (Day 28) for all the animals. Blood samples were taken on Day 0, Day 14 and Day 28. Pulmonary artery maximum velocity, cardiac output, stroke volume, right ventricle anterior wall thickness and pulmonary artery acceleration time were determined. […] The data were used to calculate the cardiac output and the stroke volume as follows: The cardiac output was calculated using the following formula (JF Lewis et al. 1984): Cardiac output=heart rate×VTI((pulmonary artery diameter^2×3.1416)/4) The stroke volume was calculated using the following formula: Stroke volume=cardiac output/heart rate
# PAB rats = assay: Pulmonary Arterial Banding (PAB) rat model; format: in vivo
# Protocol: Animals were divided into three study groups as follows: • (1) Control group/Sham (n=5) • (2) PAB+PBS vehicle orally twice a day (BID) (n=10) • (3) PAB+SMi at 100 mpk orally BID (n=10)
# Pulmonary arterial constriction was surgically performed in rats at day 0. Beginning in week 4 following surgery, animals were exposed to vehicle or SMi treatment. Weekly echocardiography was performed from surgery to week 10. After a total of 10 weeks, animals were subjected to RV catheterization.
# PAB rats were subjected to right heart catheterization (RHC) (using standard techniques and while the subject is in steady state). Treatment with integrin α5β1 inhibitor, SMi improved cardiac output, stroke volume, RVSP and RVEPD.
# SuHx mice = assay: Sugen/hypoxia (SuHx) mice model of PAH; format: in vivo, mouse; settings: SMi 100 mpk PO BID, 339.1 10 mpk IP 3x week
# Protocol: SuHx treated mice were prepared as described above and treated with integrin α5β1 antibody inhibitors (e.g., anti-mouse integrin α5β1 clone 339.1) or SMi. anti-mouse integrin α5β1 clone 339.1 is described in Bhaskar, V., Zhang, D., Fox, M. et al. A function blocking anti-mouse integrin α5β1 antibody inhibits angiogenesis and impedes tumor growth in vivo. J Transl Med 5, 61 (2007). doi.org/10.1186/1479-5876-5-61), which is hereby incorporated by reference in its entirety.
# Mice were injected with 20 mg/kg Sugen 5416 (vascular endothelial growth factor receptor inhibitor) at day 0, day 7 and day 14 and subjected to hypoxia conditions (10% oxygen) for 3 weeks. Echocardiography was performed at the start of treatment with integrin α5β1 inhibitors at week 3 (e.g., day 21) and at the end of week 5. Right heart catheterization was performed at the end of week 5.
# Cardiac function was measured including improved cardiac output, and stroke volume. Other features including media cell wall thickness, vascular remodeling, proliferation, and apoptosis were measured.
# Mice were divided into the following treatment and control groups: • Control group (n=5) • Vehicle PO BID (n=10) • SMi 100 mpk PO BID (n=10) • Macitentan 15 mpk PO BID (n=15) • IgG isotype control10 mpk IP (3× week) (n=15) • 339.1 10 mpk IP (3× week) (n=15) • 339.1 10 mpk IP+Macitentan 15 mpk PO BID (n=15)
# SuHx rats = assay: Sugen/Hypoxia (SuHx) induced PAH rat model; format: in vivo
# Protocol: Broad-spectrum pharmacological inhibition of α5β1 improves hemodynamics and vascular remodeling in Su/Hx rats with established PAH alone or in combination with standard of care.
# Animals were injected with 20 mg/kg Sugen 5416 at day 0 and subjected to hypoxia conditions (10% oxygen) for 3 weeks. Echocardiography was performed at the start of treatment with integrin α5β1 inhibitors at week 3 and at week 5. Right heart catheterization was performed at the end of week 5. Tissues were harvested for analysis.
# Human PAH-RVFbs = assay: PAH-RVFbs proliferation and activation; format: cell-based; settings: 0.25 μM, 1 μM, and 4 μM
# Protocol: PAH patient samples were assessed for expression of fibronectin binding integrins. […] Human PAH-RVFbs were treated with integrin α5β1 inhibitor SMi at 0.25 μM, 1 μM, and 4 μM. […] (FIGS. 22A and 22B).
# [5] = tested on: Primary rat cardiomyocytes; assay: PE-induced cardiomyocyte hypertrophy; format: cell-based; settings: 100 μM PE; 0.25 μM, 1 μM, and 4 μM
# Protocol: Primary rat cardiomyocytes were treated with 50 μM, 100 μM, or 200 μM, phenylephrine (PE). Expression of ITGα5, ITGαV, ITGβ1, ITGβ3, ITGβ5 were determined by western blot (FIG. 21A). Cells treated with 100 μM PE were simultaneously exposed to integrin α5β1 inhibitor SMi at 0.25 μM, 1 μM, and 4 μM.
# MCT rats = assay: Monocrotaline (MCT) rat pulmonary hypertension model; format: in vivo
# Protocol: MCT Animals were divided into study groups as follows: • (1) Non-MCT vehicle orally twice a day (BID) (n=6) • (2) MCT+PBS vehicle orally twice a day (BID) (n=8) • (3) MCT+SMi at 100 mpk orally BID (n=8)
# MCT (60 mg/kg) was administered by subcutaneous injection. Animals were exposed to vehicle or SMi treatment for 2 weeks. Blood, RV and lung analysis was performed. Cells were assessed for expression of EVG, αSMA, PCNA, and C3C. […] FIG. 12A-12D show exemplary results of treatment with SMi in MCT rats. Occlusion score (FIG. 12A), vascular remodeling (FIG. 12B), apoptosis (FIG. 12C) and proliferation (FIG. 12D) were measured.
# MCT animals were treated with SMi alone or in combination with SoC therapy (Macitentan (1 mg/kg)+Tadalafil (10 mg/kg) daily). MCT Animals were divided into study groups as follows: • (1) Non-MCT vehicle orally twice a day (BID) (n=6) • (2) MCT+PBS vehicle orally twice a day (BID) (n=8) • (3) MCT+SMi at 100 mpk orally BID (n=8) • (4) MCT+SMi at 100 mpk orally BID+SoC (Macitentan (1 mg/kg)+Tadalafil (10 mg/kg) daily (n=8).
# MCT (60 mg/kg) was administered by subcutaneous injection at day 0. Beginning in week 3, animals were exposed to vehicle or SMi treatment for 2 weeks. (FIG. 23A) Blood, RV and lung analysis was performed.
# To determine the selectivity of SMi for α5β1, MCT animals were prepared as described above and treated with SMi or a dual inhibitor of α5β1/αvβ1 (MRT).
# [6] = target: rat α5β1 (cells expressing rat α5β1) (rat, UniProt A0A0G2K1E2 94-1099; P49134 21-798); assay: cell-based or functional assay
molecule,measurement,setting,value
"CCCCC[C@H](O)/C=C/[C@@H]1[C@H]2C/C(=C/CCCC(=O)O)O[C@H]2C[C@H]1O [Flolan, epoprostenol]",half-life,[1]; in vivo,0.05 to 0.083 h
same,stability,[2],8 h
"M200: integrin α5β1 antibody, heavy chain SEQ ID NO: 1, light chain SEQ ID NO: 2",proliferation of hPASMCs,hPASMCs,reduced proliferation
P1D6 (antibody),"IC50 (nM), cell adhesion assay",[3],5.6 nM
same,"IC50 (ug/ml), cell adhesion assay",[3],0.84 µg/mL
same,reduction of hPASMCs proliferation,[4],70%
Cc1nn(C)c2c(C(C(=O)O)N3CC(OCCCCc4ccc5c(n4)NCCC5)C3)cccc12 (stereo not drawn) [SMi],apoptosis (annexin V),PAH-PASMCs,increased apoptosis
same,proliferation (Ki67),PAH-PASMCs,impaired proliferation
same,cardiac output,MCT animals,considerable increase
same,hypertrophy and right ventricle (RV) fibrosis,PAB rats; 100 mpk orally BID,improved
same,cardiac function over time compared to vehicle control,PAB rats; echocardiography,directly improved cardiac function
same,RVEPD,PAB rats; right heart catheterization,improved
same,RVSP,PAB rats; right heart catheterization,improved
same,cardiac output,PAB rats; right heart catheterization,improved
same,stroke volume,PAB rats; right heart catheterization,improved
same,cardiac and vascular improvement,SuHx mice,cardiac and vascular improvement
same,apoptosis,SuHx rats; SMi and/or SoCs,improved
same,fibrosis,SuHx rats; SMi and/or SoCs,reduced
same,hypertrophy,SuHx rats; SMi and/or SoCs,reduced
same,media cell wall thickness,SuHx rats; SMi and/or SoCs,improved
same,proliferation,SuHx rats; SMi and/or SoCs,improved
same,stroke volume,SuHx rats; SMi and/or SoCs,improved
same,vascular remodeling,SuHx rats; SMi and/or SoCs,improved
same,cardiac output,"SuHx rats; SMi and/or SoCs (Macitentan, Tadalafil)",improved
same,PAH-RVFbs proliferation and activation,Human PAH-RVFbs,decreases PAH-RVFbs proliferation and activation in a dose dependent manner
same,PE-induced adult rat cardiomyocytes hypertrophy,[5],prevents PE-induced adult rat cardiomyocytes hypertrophy
same,"cardiac function vascular remodeling (EVG, media wall thickness, mPAP, cardiac output, RVFAC)",MCT rats,improved cardiac function vascular remodeling
same,vascular remodeling,"MCT rats; 100 mpk orally BID, 2 weeks",improved vascular remodeling
same,hypertrophy and right ventricle (RV) fibrosis,MCT rats; SMi alone or in combination with SoCs,improved
same,vascular remodeling,MCT rats; SMi alone or with Maci (1 mg/kg) + Tada (10 mg/kg),improved vascular remodeling
"CN1CC(=O)N2[C@H](c3ccc4c(c3)OCO4)c3[nH]c4ccccc4c3C[C@@H]2C1=O [Tadalafil, tadalafil]",half-life,[1]; in patients with PAH,35 h
"volociximab (M200) (antibody, human IgG4, kappa, V domains shown) VH: QVQLKESGPGLVAPSQSLSITCTISGFSLTDYGVHWVRQPPGKGLEWLVVIWSDGSSTYNSALKSRMTIRKDNSKSQVFLIMNSLQTDDSAMYYCARHGTYYGMTTTGDALDYWGQGTSVTVSS VL: QIVLTQSPAIMSASLGERVTMTCTASSSVSSNYLHWYQQKPGSAPNLWIYSTSNLASGVPARFSGSGSGTSYSLTISSMEAEDAATYYCHQYLRSPPTFGGGTKLEIKR","IC50 (nM), cell adhesion assay",[6],6.8 nM
same,"IC50 (ug/ml), cell adhesion assay",[6],1 µg/mL
